How the values were obtained:
[1] = Inhibition of rat microsomal SOAT assessed as reduction in cholesteryl oleate formation from oleoyl co-enzyme A pretreated for 15 mins followed by oleoyl co-enzyme A addition after 10 mins by HPTLC method
Rattus norvegicus [2] = experiment: Anti-hypercholesterolemic activity in poloxamer-407-induced Wistar rat lipoprotein lipase inhibition model assessed as fold change in triglyceride level at 20 mg/kg administered as single dose via oral gavage pretreated for 4 hrs followed by poloxamer-407 induction measured over 24 hrs (reference value: 80); assay type: functional
Rattus norvegicus [3] = organism: Rattus norvegicus; experiment: Inhibition of rat microsomal SOAT assessed as reduction in cholesteryl oleate formation from oleoyl co-enzyme A at 10 uM pretreated for 15 mins followed by oleoyl co-enzyme A addition measured after 10 mins by HPTLC method relative to control
[4] = target: T1, Sterol O-acyltransferase 2 (Homo sapiens, UniProt O75908); experiment: Inhibition of human SOAT2
T1 sequence (O75908 whole entry): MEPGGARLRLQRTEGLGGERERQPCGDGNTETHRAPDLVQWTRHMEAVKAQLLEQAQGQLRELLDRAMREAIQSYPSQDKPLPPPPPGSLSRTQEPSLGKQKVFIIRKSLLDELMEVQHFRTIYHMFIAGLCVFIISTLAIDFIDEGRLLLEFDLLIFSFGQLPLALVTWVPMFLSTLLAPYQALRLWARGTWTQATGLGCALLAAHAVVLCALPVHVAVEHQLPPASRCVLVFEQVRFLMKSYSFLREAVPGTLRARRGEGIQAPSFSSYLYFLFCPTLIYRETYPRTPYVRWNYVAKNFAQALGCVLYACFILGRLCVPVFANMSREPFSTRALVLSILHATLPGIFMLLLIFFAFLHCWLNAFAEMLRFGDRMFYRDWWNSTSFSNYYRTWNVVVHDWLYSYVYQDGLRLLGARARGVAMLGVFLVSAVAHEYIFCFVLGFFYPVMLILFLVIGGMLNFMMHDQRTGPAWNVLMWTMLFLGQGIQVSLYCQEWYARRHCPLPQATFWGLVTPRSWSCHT

Row | SMILES | IC50 [1] [µM] | pIC50 [1] | inhibition (Rattus norvegicus [3]) [%] | IC50 [4] [µM] | fold change (FC) (Rattus norvegicus [2])
1 | O=C(NCCCCCCSc1nc(-c2ccccc2)c(-c2ccccc2)[nH]1)Nc1ccc(F)cc1F | – | – | – | 1.74 | –
2 | CCCCNC(=O)Nc1nc(-c2ccc(OC)cc2)c(-c2ccc(NC(C)=O)cc2)s1 | 41.3 | 4.384 | 39.5 | – | –
3 | CCc1cccc(CC)c1NC(=O)Nc1ccc(-c2sc(C)nc2-c2ccc(C)cc2)cc1 | 30.9 | 4.412 | 30.9 | – | –
4 | O=C(Nc1ccccc1)Nc1nc(-c2ccccc2)c(-c2ccccc2)s1 | 17.7 | 4.7512 | 10.6 | – | –
5 | CCCCCCCCCCCCNC(=O)Nc1ccc(-c2nonc2-c2ccc(F)cc2)cc1 | 12.4 | 4.905 | 50.1 | – | –
6 | CC(C)c1cc(C(C)C)c(CC(=O)NS(=O)(=O)Oc2c(C(C)C)cccc2C(C)C)c(C(C)C)c1 [AVASIMIBE] | – | – | – | – | 20
7 | COc1ccc(-c2nc(NC(=O)Nc3ccc(F)cc3F)sc2-c2ccc(NS(C)(=O)=O)cc2)cc1 | 19 | 4.721 | 19.6 | – | –
8 | CCCCCCCCCCCCNC(=O)Nc1ccc(-c2nonc2-c2ccc(C)cc2)cc1 | 123 | 3.909 | 9.15 | – | –
9 | COc1ccc(-c2nc(NC(=O)Nc3ccc(F)cc3F)sc2-c2ccc(NC(C)C)cc2)cc1 | 12.1 | 4.916 | 51.7 | – | –
10 | COc1ccc(-c2nc(C)sc2-c2ccc(NC(=O)Nc3ccccc3)cc2)cc1 | 94.8 | 4.0233 | 11.4 | – | –

The remaining molecules from weak to strong by IC50 [1], led by results:

Row | IC50 [1] [µM] | pIC50 [1] | inhibition (Rattus norvegicus [3]) [%] | IC50 [4] [µM] | SMILES | fold change (FC) (Rattus norvegicus [2])
11 | 8.4 | 5.075 | 46.7 | – | CCc1cccc(CC)c1NC(=O)Nc1ccc(-c2sc(C)nc2-c2ccc(F)cc2)cc1 | 50 - 90
12 | 7.85 | 5.105 | 52.2 | – | CCCCCCCNC(=O)Nc1ccc(-c2sc(C)nc2-c2ccc(Cl)cc2)cc1 | 50 - 90
13 | 6.27 | 5.202 | 60.7 | – | CCCCNC(=O)Nc1ccc(-c2sc(C)nc2-c2ccc(Cl)cc2)cc1 | 50 - 90
14 | 5.69 | 5.244 | 63 | – | CCCCCCCNC(=O)Nc1ccc(-c2sc(C)nc2-c2ccc(F)cc2)cc1 | 50 - 90
15 | 4.04 | 5.3936 | 63.3 | – | CCc1cccc(CC)c1NC(=O)Nc1ccc(-c2sc(C)nc2-c2ccc(Cl)cc2)cc1 | 50 - 90
